Earlier results as cited in patent US20150182479A1, “Method of delivering agmatine for medical treatment” (TOPAZ VENTURES, INC., priority 2013, published 2015).

How the values were obtained:
[1] = system: mouse; settings: FST; for effect on antidepressant like effect of fluoxetine or paroxetine: agonists ip, agmatine-raising drugs icv; for effect of prior administration on antidepressant like effect of paroxetine and fluoxetine: paroxetine 10 mg/kg ip, fluoxetine 20 mg/kg ip
[2] = system: mice; settings: for effect on morphine analgesia: agmatine 10 mg/kg i.p. 30 min before morphine s.c.; for effect on oxycodone analgesia: agmatine 10 mg/kg i.p. 30 min before oxycodone s.c.
[3] = system: thermal nociception; settings: for effect of antagonist on response-latency enhancement by WIN 55212-2: WIN 55212-2 2 mg/kg, SR 141716A 5 mg/kg i.p., idazoxan 2 and 5 mg/kg, yohimbine 5 mg/kg

## c1ccc2oc(C3=NCCN3)cc2c1 [2-(2-benzofuranyl)-2-imidazoline]
[1]
  effect on antidepressant like effect of fluoxetine or paroxetine: potentiated

## Cc1noc(NS(=O)(=O)c2cccc3c(N(C)C)cccc23)c1C [BMS 182874]
[2]; 360-min observation period
  tail-flick latency, drug alone: did not produce any change
[2]; tail-flick, mice
  effect of pretreatment on analgesic effect produced by agmatine alone: did not increase
  effect on agmatine-induced potentiation of morphine and oxycodone analgesia: not altered
  effect on morphine analgesia: potentiates
  effect on oxycodone analgesia: potentiates

## N=C(N)NCCC[C@@H](N)C(=O)O [D-arginine]
[1]
  effect of prior administration on antidepressant like effect of paroxetine and fluoxetine: blocked

## N=C(N)NCCC[C@H](N)C(=O)O [L-arginine]
[1]
  effect on antidepressant like effect of fluoxetine or paroxetine: potentiated

## Cc1c(C(=O)NN2CCCCC2)nn(-c2ccc(Cl)cc2Cl)c1-c1ccc(Cl)cc1 [SR 141716A]
[3]
  effect of antagonist on response-latency enhancement by WIN 55212-2: blocked

## N=C(N)NN [aminoguanidine]
[1]
  effect on antidepressant like effect of fluoxetine or paroxetine: potentiated

## NC(N)=NCCCCN=C(N)N [arcaine]
[1]
  effect on antidepressant like effect of fluoxetine or paroxetine: potentiated

## Clc1cccc(Cl)c1N=C1NCCN1 [clonidine]
[2]; tail-flick, mice
  effect on morphine analgesia: potentiate
  effect on oxycodone analgesia: potentiate
[1]
  effect on antidepressant like effect of fluoxetine or paroxetine: potentiated

## CCC1(C2=NCCN2)Cc2ccccc2O1 (stereo not drawn) [efaroxan]
[1]
  effect of prior administration on antidepressant like effect of paroxetine and fluoxetine: blocked

## c1ccc2c(c1)OCC(C1=NCCN1)O2 (stereo not drawn) [idazoxan]
[3]; WIN 55212-2 2 mg/kg and agmatine, yohimbine 5 mg/kg i.p.
  effect of antagonist on response-latency enhancement by combination of WIN 55212-2 and agmatine: blocked
[3]
  effect of antagonist on response-latency enhancement by WIN 55212-2: attenuated
[2]; tail-flick, mice
  effect on BMS 182874-induced potentiation of oxycodone analgesia: blocked
  effect on agmatine-induced potentiation of morphine and oxycodone analgesia: blocked
[1]
  effect of prior administration on antidepressant like effect of paroxetine and fluoxetine: blocked

## COc1nc(C)nc(Cl)c1N=C1NCCN1 [moxonidine]
[1]
  effect on antidepressant like effect of fluoxetine or paroxetine: potentiated

## COC(=O)[C@@H]1[C@H]2C[C@H]3c4[nH]c5ccccc5c4CCN3C[C@@H]2CC[C@@H]1O [yohimbine]
[3]
  effect of antagonist on response-latency enhancement by WIN 55212-2: not affected
[2]; tail-flick, mice
  effect on BMS 182874-induced potentiation of morphine analgesia: not affected
  effect on BMS 182874-induced potentiation of oxycodone analgesia: not affected
  effect on agmatine-induced potentiation of morphine and oxycodone analgesia: blocked

## (−)-cis 3-(2-hydroxy-4-(1,1-dimethylheptyl)phenyl)-trans-4-(3-hydroxypropyl) cyclohexanol [CP55,940]
[3]; i.p., WIN 55212-2 or CP55,940 1, 2 or 3 mg/kg, agmatine 50 or 100 mg/kg
  hot-plate response latency, drug given alone: increased

## difluoromethyl ornithine
[1]
  effect on antidepressant like effect of fluoxetine or paroxetine: potentiated
